Legend:
[1] = Toxicokinetic evaluation of 14-day repeated intragastric administration to SD rats; type: in vivo; details: both sexes, SD, rat, plasma, po
Experimental: With SD rats as test animals, the plasma concentrations of the test compounds and the concentrations of the original forms of the compounds in the administration solutions were measured by LC/MS/MS at different time points after intragastric administration. The toxicokinetic performance of the compound disclosed herein was studied in SD rats and its toxicokinetic profile was evaluated.
24 SD rats, an equal number of males and females, evenly divided into 6 groups of 4, an equal number of males and females in each group, provided by Vital River Laboratory Animal Technology Co., Ltd.
A certain amount of the compound of Example 16 was measured out, and 15% PEG400 and 85% (10% TPGS+1% HPMC K100LV) were added to prepare a pale yellow homogenous suspension.
A certain amount of compound MYK-461 was measured out, and 0.5% MC was added to prepare a colorless clear solution.
The compound of Example 16 was intragastrically administered at doses of 5 mg/kg, 15 mg/kg and 30 mg/kg, at a volume of 10 mL/kg.
Compound MYK-461 was administered at doses of 0.5 mg/kg, 1.5 mg/kg and 3 mg/kg, at a volume of 10 mL/kg.
0.2-mL blood samples were collected from the orbit 0.5 h, 1.0 h, 2.0 h, 4.0 h, 8.0 h and 24.0 h after administration on day 1, and before administration and 0.5 h, 1.0 h, 2.0 h, 4.0 h, 8.0 hi, 24.0 h after administration on day 7 and day 14, placed into EDTA-K2 anticoagulation tubes, and centrifuged at 10,000 rpm for 1 min (4° C.), and plasma was isolated within 1 h and stored at −20° C. before analysis. The blood collection to centrifugation process was performed under ice bath conditions. Two hours after administration, feeding was resumed.
Determination of plasma concentrations in SD rats after intragastric administration of different concentrations of test compounds: 20 μL of SD rat plasma at each time point post-dose was mixed with 50 μL of an internal standard solution (internal standard for the compound of Example 16: 100 ng/mL verapamil; internal standard for compound MYK-461: 100 ng(mL camptothecin) and 200 μL of acetonitrile; the mixture was vortexed for 5 min and centrifuged at 3700 rpm for 10 min, and 1 μL of the supernatant was taken for LC/MS/MS analysis.

[2] = Pharmacokinetic evaluation in cynomolgus monkeys; type: in vivo; details: for AUC: read-out: Area under curve AUC; for half-life: read-out: Half-life T1/2 (converted); for Cmax: read-out: Plasma concentration Cmax; for MRT: read-out: Residence time MRT
Experimental: With cynomolgus monkeys as test animals, the plasma concentrations of the test compounds were measured by LC/MS/MS at different time points after intragastric administration and intravenous injection. The pharmacokinetic performance of the compound disclosed herein was studied in cynomolgus monkeys and its pharmacokinetic profile was evaluated.
Pharmacokinetics of the compound of Example 16 in cynomolgus monkeys: 8 cynomolgus monkeys, an equal number of males and females, divided into 2 groups of 4, provided by Shanghai Medicilon Inc.
Pharmacokinetics of compound MYK-461 in cynomolgus monkeys: 6 cynomolgus monkeys, male, divided into 2 groups of 3, provided by Shanghai Medicilon Inc.
A certain amount of the compound of Example 16 was measured out, and 5% DMSO, 30% PG, 30% PEG400 and 35% normal saline were added to prepare a clear solution.
A certain amount of compound MYK-461 was measured out, and 5% DMSO, 20% PG, 20% PEG400 and 55% normal saline were added to prepare a clear solution.
Cynomolgus monkeys were fasted overnight and then given compounds by intragastric administration and intravenous injection at doses of 2 mg/kg and 0.5 mg/kg, respectively, and at volumes of 5 mL/kg and 2 mL/kg, respectively.
1.0-mL blood samples were collected from the forelimb veins of the animals in the intragastric administration group before administration and 0.25 h, 0.5 h, 1h, 2 h, 4 h, 6 h, 8 h, 12 h and 24 h after administration, placed into EDTA-K2 anticoagulant tubes, and centrifuged at 10,000 rpm for 5 min (4° C.), and plasma was isolated within 1 h and stored at −80° C. before analysis. The blood collection to centrifugation process was performed under ice bath conditions. Three hours after administration, feeding was resumed, and ad libitum access to water was given.
Blood samples were collected from the animals in the intravenous injection group before administration and 5 min, 0.25 h, 0.5 h, 1.0 h, 2.0 h, 4.0 h, 8.0 h, 12.0 h and 24.0 h after administration and processed as in the intragastric administration group.
Determination of plasma concentrations in cynomolgus monkeys after intragastric administration and intravenous injection of different concentrations of test compounds: 20 μL of cynomolgus monkey plasma at each time point post-dose was mixed with an internal standard solution (internal standard for the compound of Example 16: 10 ng/mL verapamil; internal standard for compound MYK-461: 100 ng/mL camptothecin) and 400 μL of methanol; the mixture was vortexed for 1 min and centrifuged at 18,000 g for 7 min, and 200 μL of the supernatant was transferred to a 96-well plate: 2 μL of the supernatant was taken for LC/MS/MS analysis.

[3] = both (Example 16), male (MYK-461), cynomolgus monkey, plasma, intravenous injection, 0.5 mg/kg
[4] = both (Example 16), male (MYK-461), cynomolgus monkey, plasma, po, intragastric administration, 2 mg/kg
[5] = intravenous injection, 0.5 mg/kg

Cc1ccc(F)c([C@H](C)Nc2nc(=O)n(C3CCOCC3)c(=O)[nH]2)c1 [Example 16, (S)-6-((1-(2-Fluoro-5-methylphenyl)ethyl)amino)-3-(tetrahydro-2H-pyran-4-yl)-1,3,5-triazine-2,4(1H,3H)-dione]
half-life ([1]; 15 mg/kg, repeated intragastric 15 mg/kg, Day 14, read-out: Half-life T1/2 (converted)): 5.6 h
Cmax ([1]; 15 mg/kg, repeated intragastric 15 mg/kg, Day 14, read-out: Plasma concentration Cmax): 14100 ng/mL
MRT ([1]; 15 mg/kg, repeated intragastric 15 mg/kg, Day 14, read-out: Residence time MRT): 6.4 h
Vd/F ([1]; 30 mg/kg, repeated intragastric 30 mg/kg, Day 1, read-out: Apparent volume of distribution Vz/F): 2.26 L/kg
AUC ([1]; 30 mg/kg, repeated intragastric 30 mg/kg, Day 1, read-out: Area under curve AUC): 105 µg·h/mL
CL/F ([1]; 30 mg/kg, repeated intragastric 30 mg/kg, Day 1, read-out: Clearance CL/F): 4.72 mL/min/kg
half-life ([1]; 30 mg/kg, repeated intragastric 30 mg/kg, Day 1, read-out: Half-life T1/2 (converted)): 5.6 h
Cmax ([1]; 30 mg/kg, repeated intragastric 30 mg/kg, Day 1, read-out: Plasma concentration Cmax): 18700 ng/mL
MRT ([1]; 30 mg/kg, repeated intragastric 30 mg/kg, Day 1, read-out: Residence time MRT): 6.4 h
Vd/F ([1]; 30 mg/kg, repeated intragastric 30 mg/kg, Day 7, read-out: Apparent volume of distribution Vz/F): 2.15 L/kg
AUC ([1]; 30 mg/kg, repeated intragastric 30 mg/kg, Day 7, read-out: Area under curve AUC): 121 µg·h/mL
CL/F ([1]; 30 mg/kg, repeated intragastric 30 mg/kg, Day 7, read-out: Clearance CL/F): 4.14 mL/min/kg
half-life ([1]; 30 mg/kg, repeated intragastric 30 mg/kg, Day 7, read-out: Half-life T1/2 (converted)): 5.9 h
Cmax ([1]; 30 mg/kg, repeated intragastric 30 mg/kg, Day 7, read-out: Plasma concentration Cmax): 21600 ng/mL
MRT ([1]; 30 mg/kg, repeated intragastric 30 mg/kg, Day 7, read-out: Residence time MRT): 6.7 h
Vd/F ([1]; 30 mg/kg, repeated intragastric 30 mg/kg, Day 14, read-out: Apparent volume of distribution Vz/F): 1.69 L/kg
AUC ([1]; 30 mg/kg, repeated intragastric 30 mg/kg, Day 14, read-out: Area under curve AUC): 139 µg·h/mL
CL/F ([1]; 30 mg/kg, repeated intragastric 30 mg/kg, Day 14, read-out: Clearance CL/F): 3.52 mL/min/kg
half-life ([1]; 30 mg/kg, repeated intragastric 30 mg/kg, Day 14, read-out: Half-life T1/2 (converted)): 5.6 h
Cmax ([1]; 30 mg/kg, repeated intragastric 30 mg/kg, Day 14, read-out: Plasma concentration Cmax): 20000 ng/mL
MRT ([1]; 30 mg/kg, repeated intragastric 30 mg/kg, Day 14, read-out: Residence time MRT): 6.9 h
T1/2 comparison (in words) [2]: significantly shorter T1/2
absorption profile (in words) [2]: good absorption profile
AUC [2, 3]: 1.02 µg·h/mL
half-life [2, 3]: 5.6 h
Cmax [2, 3]: 1660 ng/mL
MRT [2, 3]: 6.8 h
Vd/F ([2]; both (Example 16), male (MYK-461), cynomolgus monkey, plasma, po, intragastric administration, 2 mg/kg, read-out: Apparent volume of distribution Vz/F): 10.3 L/kg
AUC [2, 4]: 2.41 µg·h/mL
CL/F ([2]; both (Example 16), male (MYK-461), cynomolgus monkey, plasma, po, intragastric administration, 2 mg/kg, read-out: Clearance CL/F): 11.8 mL/min/kg
half-life [2, 4]: 10.3 h
Cmax [2, 4]: 553 ng/mL
MRT [2, 4]: 12.5 h
Apparent volume of distribution Vz/F [2, 5]: 3.579 L/kg
Clearance CL/F [2, 5]: 7.46 mL/min/kg

— patent US20240010639A1, “TRIAZINE DIONE DERIVATIVE, PREPARATION METHOD THEREFOR AND APPLICATION THEREOF IN MEDICINE” (Jiangsu Hengrui Pharmaceuticals Co., Ltd., priority 2020, published 2024)
